Data: patent US20140018431A1 (priority 2007, published 2014)

Experiments:
airway smooth muscle = details: literature (Belvisi, 1998); cited from earlier work
[1] = test system: VEG-F (vascular endothelium-derived growth factor); test: Serum VEG-F biomarker, patients with PAH, 12 weeks of treatment; assay type: in vivo, human; details: treatment for 12 weeks
Method: (§1) In addition, treatment with treprostinil is shown to have positive outcome in the six minute walk test described above.
(§2) 44 patients with PAH received study drug (Remodulin or placebo). 30 patients received Remodulin and 14 received placebo. A 12-week trial was conducted. The mean dose of Remodulin received was 72.5 ng/kg/min at Week 12 (compared to 80.0 ng/kg/min placebo-equivalent). Remodulin produced an 93.0 meter median improvement in the six-minute walk compared to placebo, Hodges-Lehmann estimate, with a 95% CI of 7.0 to 187.0 (p=0.0077) from nonparametric ANCOVA.
(§3) Baseline patients with PAH appeared to have higher-than-normal levels of MMP-9, Ang-2, VEG-F, and PDGF (matrix metalloproteinase 9, angiopoetin-2, vascular endothelium-derived growth factor, and platelet-derived growth factor, respectively).

[2] = test system: MMP-9 (matrix metalloproteinase 9); test: MMP-9 biomarker, patients with PAH, 12 weeks of treatment; assay type: in vivo, human; details: treatment for 12 weeks
Method: as §1, §2, §3
Further, there was a statistically significant correlation between the degree of decrease in Ang-2 and the degree of improvement in the six-minute walk test.

[3] = assay type: in vivo, human; details: patients with PAH, 12-week trial
Method: The effect of treprostinil (in the form of Remodulin or inhaled treprostinil) on patients is analyzed using the 6-minute walk test with Borg dyspnea score, a standard assessment of exercise capacity and breathlessness in patients with lung disease. See Guyatt, G. Sullivan, M. et al. (Canada Medical Assoc. J. Vol. 132, 1985). The Six-Minute Walk corresponds closely to the demands of everyday activity and is a safe and simple measurement of functional exercise capacity for clinical trials in patients.
The area used for the Six-Minute Walk test should be pre-measured at a minimum of 108 feet (33 meters) in length and at least 6 to 10 feet (2 to 3 meters) in width. The length should be marked with half-yard (0.5 meter) gradations. The area should be well ventilated with air temperature controlled at 20 to 23° C. ([…].).
The tester may be at the starting end of the corridor or at the midpoint of the corridor with a stop-watch. Intermittent rest periods are allowed if the patient can no longer continue. If the patient needs to rest briefly, he/she may stand or sit and then begin again when he/she is sufficiently rested but the clock will continue to run. At the end of six minutes, the tester will call “stop” while simultaneously stopping the watch and then measure the distance walked. The Borg Dyspnea Rating is then administered.
No other instruction or encouragement are given during the test. Eye contact with the patient should be avoided during the test. Following the walk, the person administering the test obtains a rating of dyspnea using the Borg Scale. The person uses the following dialogue:
“I would like to use the following scale to indicate the maximal shortness of breath you had during the walk test (indicate the Borg Scale). […]

Ang-2 (angiopoetin-2) = test: Serum Ang-2 biomarker, patients with PAH, 12 weeks of treatment; assay type: in vivo, human; details: treatment for 12 weeks
Method: as §1, §2, §3

[4] = test system: PDGF (platelet-derived growth factor); test: PDGF biomarker, patients with PAH, 12 weeks of treatment; assay type: in vivo, human; details: treatment for 12 weeks
Method: as §1, §2, §3

[5] = test system: lung myeloid dendritic cells; details: literature (Idzko, 2007), cited from earlier work

CCCCC[C@H](O)/C=C/[C@@H]1[C@H]2C/C(=C/CCCC(=O)O)O[C@H]2C[C@H]1O [PGI2]
effect on airway smooth muscle proliferation (airway smooth muscle): antiproliferative effect

CCCCC[C@H](O)CC[C@@H]1[C@H]2Cc3cccc(OCC(=O)[O-])c3C[C@H]2C[C@H]1O.[Na+] [Remodulin]
serum VEG-F [1]: significantly decreased | degree of change in MMP-9 [2]: not significant | median improvement in the six-minute walk compared to placebo, Hodges-Lehmann estimate ([3]; mean dose 72.5 ng/kg/min at Week 12, 95% CI of 7.0 to 187.0, p=0.0077, nonparametric ANCOVA): 93.0 meter | Borg Dyspnea score, median improvement over placebo ([3]; p=0.23): 2.0 | combined ranking of 6MW/Borg Score Index ([3]; vs placebo, p=0.0023): significantly improved | serum Ang-2 (Ang-2 (angiopoetin-2)): significantly decreased | PDGF [4]: strong trend toward decreased

CC#CCC(C)[C@H](O)/C=C/[C@@H]1[C@H]2C/C(=C/CCCC(=O)O)C[C@H]2C[C@H]1O (stereo partly shown) [iloprost]
anti-inflammatory effects in a mouse model of asthma [5]: anti-inflammatory effects | induction of allergen-specific Th2 response in mediastinal lymph nodes ([5]; mouse model of asthma): abolishing the induction
